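Five compound concentrations were applied to cells in 96-well plates for 48 hours; endpoints were derived by simple linear interpolation of the resulting dose-response curve. At the GI50, growth is halved. TGI is the concentration that stops growth completely.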
Experiments:
Experiment in all cases: NCI tumour cell line growth inhibition, 48 h
SR leukemia = test system: SR leukemia
KM12 colon = test system: KM12 colon
HOP-62 NSCLC = test system: HOP-62 NSCLC
SNB-19 CNS = test system: SNB-19 CNS
DU-145 prostate = test system: DU-145 prostate
BT-549 breast = test system: BT-549 breast
MALME-3M melanoma = test system: MALME-3M melanoma
786-0 renal = test system: 786-0 renal
OVCAR-8 ovarian = test system: OVCAR-8 ovarian
MCF7 breast = test system: MCF7 breast

SMILES | GI50 (SR leukemia) | TGI (SR leukemia) | GI50 (KM12 colon) | TGI (KM12 colon) | GI50 (HOP-62 NSCLC) | TGI (HOP-62 NSCLC) | GI50 (SNB-19 CNS) | TGI (SNB-19 CNS) | GI50 (DU-145 prostate) | GI50 (BT-549 breast) | TGI (BT-549 breast) | GI50 (MALME-3M melanoma) | TGI (MALME-3M melanoma) | GI50 (786-0 renal) | TGI (786-0 renal) | GI50 (OVCAR-8 ovarian) | TGI (OVCAR-8 ovarian) | GI50 (MCF7 breast) | TGI (MCF7 breast) | TGI (DU-145 prostate)
COC(=O)[C@@H](C)C[C@H](Cc1ccccc1)NC(=O)c1cccc([C@@H](C[C@H](C(C)C)N(C)C(=O)[C@@H](NC(=O)[C@H]2CCCCN2C)C(C)C)OC(C)=O)n1 | < 0.00167 µM | > 16.7 µM | < 0.00167 µM | > 16.7 µM | 0.00367 µM | > 16.7 µM | < 0.00167 µM | > 16.7 µM | < 0.00167 µM | 0.0025 µM | 0.101 µM | < 0.00167 µM | > 16.7 µM | 0.00583 µM | > 16.7 µM | 0.00243 µM | > 16.7 µM | < 0.00167 µM | > 16.7 µM | 
NC(=O)NOCC1NC(=O)NC1=O (centres undefined) |  | > 100 µM |  | > 100 µM |  | > 100 µM |  | > 100 µM |  |  | > 100 µM |  | > 100 µM |  | > 100 µM |  | > 100 µM |  | > 100 µM | > 100 µM
CCOC(=O)C(Cc1ccc(N(CCCl)CCCl)cc1)NC(=O)C(CC(C)C)NC(C)=O (centres undefined) | 0.0344 µM | 6.89 µM | 4.35 µM | 18.8 µM | 1.32 µM | 3.8 µM | 3.55 µM | 16.7 µM | 0.472 µM | 7.07 µM | 21.7 µM | 0.873 µM | 2.74 µM | 1.38 µM | 4.38 µM | 1.02 µM | 5.18 µM | 0.699 µM | 15.4 µM | 4.41 µM
COc1ccc(-c2nccn2-c2cc(OC)c(OC)c(OC)c2)cc1 | > 100 µM | > 100 µM | 0.451 µM | > 100 µM | 13.7 µM | > 100 µM | 4.77 µM | > 35.6 µM | 13.1 µM | > 32.1 µM | > 100 µM | 1.96 µM | > 100 µM | 13.6 µM | > 100 µM | 12 µM | > 100 µM | 1.27 µM | > 100 µM | > 100 µM
COc1ccc(C2CC(c3ccc(OC)c(OC)c3)=NN2C(=O)c2cc(OC)c(OC)c(OC)c2)cc1 (centres undefined) | 2.07 µM | > 100 µM | 2.31 µM | > 63.1 µM | 1.78 µM | > 100 µM | 4.67 µM | > 100 µM | 3.79 µM | 3.96 µM | > 46.7 µM | > 91.3 µM | > 100 µM | 2.71 µM | > 100 µM | 3.96 µM | > 100 µM | 0.647 µM | > 100 µM | > 100 µM
O=C(CN1C(=O)c2ccccc2C1=O)NC1(C(=O)O)CCCC1 |  | > 100 µM |  | > 100 µM |  | > 100 µM |  | > 100 µM |  |  | > 100 µM |  | > 100 µM |  | > 100 µM |  | > 100 µM |  | > 100 µM | > 100 µM
C[As](C)SCC(COC(=O)c1ccccc1)OC(=O)c1ccccc1 (centres undefined) | 0.0241 µM | 0.183 µM | 0.384 µM | 7.92 µM | 0.742 µM | 1.86 µM | 3.63 µM | 19.6 µM | 0.473 µM | 1.01 µM | 6.4 µM |  | 0.0345 µM | 0.1 µM | 0.556 µM | 0.225 µM | 0.667 µM | 0.0462 µM | 0.312 µM | 4.17 µM
COC(=O)c1cc2c([nH]c3ccccc32)c(-c2nc3cc(N(S(=O)(=O)c4ccc(C)cc4)S(=O)(=O)c4ccc(C)cc4)c(OC)cc3cc2CO)n1 | 1.28 µM | 3.48 µM | > 100 µM | > 100 µM |  |  | 75 µM | > 100 µM | > 100 µM | > 100 µM | > 100 µM | > 100 µM | > 100 µM | 32.1 µM | 87.8 µM | > 100 µM | > 100 µM | > 100 µM | > 100 µM | > 100 µM
CCCCc1ccc(C(N)=O)nc1 | > 100 µM | > 100 µM | > 100 µM | > 100 µM | > 100 µM | > 100 µM | > 100 µM | > 100 µM | > 100 µM | > 100 µM | > 100 µM | > 100 µM | > 100 µM | > 100 µM | > 100 µM | > 100 µM | > 100 µM | > 100 µM | > 100 µM | > 100 µM
Cn1c(N)cc(=O)nc1N |  | > 100 µM |  | > 100 µM |  | > 100 µM |  | > 100 µM |  |  | > 100 µM |  | > 100 µM |  | > 100 µM |  | > 100 µM |  | > 100 µM | > 100 µM
N#CC1=C(N)Oc2c(ccc3ccccc23)C1c1ccccc1Cl (centres undefined) | 0.107 µM | 22.1 µM | 0.227 µM | 7.9 µM | 0.374 µM | 17.3 µM | 0.59 µM | 23.1 µM | 0.432 µM | 1.2 µM | 7.74 µM | 0.617 µM | 22.9 µM | 0.754 µM | 16.4 µM | 0.542 µM | > 57.7 µM | 0.383 µM | 15.2 µM | 12.3 µM
COc1ccc(/C(C)=C(\c2ccc(Cl)cc2)c2ccc(OCCN3CCCCC3)cc2)cc1F | 1.8 µM | > 16.7 µM | 1.97 µM | 6.23 µM | 3.34 µM | 6.58 µM | 5.37 µM | > 16.7 µM | 4.64 µM | 3.11 µM | 7.47 µM | 2.18 µM | 4.46 µM | 2.69 µM | 5.3 µM | 4.11 µM | 12.4 µM | 3.34 µM | 8.24 µM | 15 µM
O=C1C2=C(Nc3cc([N+](=O)[O-])ccc3N2)OC1c1c[nH]c2ccc(COc3ccccc3)cc12 (centres undefined) |  | > 100 µM |  | > 100 µM |  | > 100 µM |  | > 100 µM |  |  | > 100 µM |  | > 100 µM |  | > 100 µM |  | > 100 µM |  | > 100 µM | > 100 µM
C=CC(=O)N1CC[C@@H](Oc2nc(Nc3ccc(N4CCC(N5CCN(C)CC5)CC4)cc3)c(C(N)=O)nc2CC)C1 | > 100 µM | > 100 µM | > 100 µM | > 100 µM |  |  | > 100 µM | > 100 µM | > 100 µM | > 100 µM | > 100 µM | > 100 µM | > 100 µM | > 100 µM | > 100 µM | > 100 µM | > 100 µM | > 100 µM | > 100 µM | > 100 µM
